Assay results reported in patent publication US11026443B2, “Use of sedoheptulose as a nutritional supplement” (C7 SUGAR GMBH, priority 2013, dated 2021).

Tests used:
primary human adipocytes [1] = assay: Oxygen consumption rate and extracellular acidification rate (XF-Analyzer) in primary human adipocytes; format: cell-based; details: human adipocytes differentiated and cultured in sedoheptulose containing media vs controls
Description: Stromal vascular fraction cells (SVFs) from subcutaneous white adipose tissue of a patient undergoing abdominal surgery were isolated as described before (Lindroos et al, Cell Metab. (2013), Jul. 2; 18(1):62-74.). Briefly, adipose tissue was digested with Collagenase II (Worthington) and filtered. SVFs were separated from mature adipocytes by centrifugation, followed by the lysis of erythrocytes in the SVF-fraction (Buffer EL, Qiagen). The purified SVFs were cultured in DMEM/F12, 10% FBS (Gibco, Life Technologies). As soon as the cells reached confluence, they were washed with DMEM/F12 w/o glucose (Biowest) and the medium was replaced by DMEM/F12 with a total carbohydrate load of 3 g/L, containing 1.5 g/L glucose and fructose or 1 g/L each of glucose, fructose, and sedoheptulose, respectively. […]
(§1) The XF-Analyzer (Seahorse Bio.) was used to measure changes in cellular metabolism induced by different carbohydrates. Extracellular acidification rates (ECAR, mpH/min) and oxygen consumption rates (OCR, pmoles/min) were recorded in primary human adipocytes and primary murine hepatocytes according to the manufacture instructions. […] Changes induced by the different carbohydrate sources were expressed as relative change in % to illustrate the effect of each carbon source.

[2] = Diet-derived sedoheptulose uptake in humans (serum GC-MS before/after carrot meal); format: in vivo, human; details: two hours after meal of mainly steamed carrots (~700 g) vs overnight fasted, n=4
Excerpt: Fresh carrots with an Austrian “organic-certificate” were sliced into small pieces and snap-frozen in liquid nitrogen. The same procedure was applied to leaves freshly harvested from indoor-grown Sedum Spectabile plants. Three samples of each tissue were pooled and homogenized to powder by glass-beads. The carbohydrate rich fractions of the samples were isolated by 20% H2O and 80% MeOH extraction solution spiked with 13C standards and processed for standard gas-chromatography coupled to mass spectrometry (GC-MS). Glucose and sedoheptulose were identified by their individual masses and their relative amount was derived from the peak area of each individual analyte normalized to 13C content. Glucose and sedoheptulose were also measured in equal volumes of serum from overnight fasted or carrot fed individuals. The carrots were steamed and some olive-oil, salt and pepper were used for flavour. Two hours before and two hours after the carrot containing meal human serum was prepared in VACUETTE® Z Serum Sep tubes from blood. Serum samples were processed as previously described and also analyzed by GC-MS as detailed above and in Ruiz-Matute A I et al., Chromatogr B Analyt Technol Biomed Life Sci. (2011) May 15 879(17-18).

[3] = system: primary murine hepatocytes; assay: IL-6 mRNA expression in primary murine hepatocytes in GF or GFS media; format: cell-based, mouse; details: hepatocytes pre-cultured two days with sedoheptulose (GFS) vs GF
Description: (§2) Hepatocytes were isolated from male wild-type and CARKL overexpressing mice after the mice were sacrificed by hepatic in situ collagenase perfusion. After perfusion, the liver was quickly removed, minced, and filtered through a cell strainer (Fisher Scientific, Inc) into a 50 ml sterile tube. Hepatocytes in the resulting filtrate were purified from the nonparenchymal cells by centrifugation steps. The isolated hepatocytes were seeded into plates at a concentration of 0.25×10^6/ml in respective DMEM-media containing 10% FBS and indicated carbohydrate mixes at 3 g/L (glucose and fructose (GF), or glucose, fructose and sedoheptulose (GFS)) at least two days before experiments were performed.
(§3) Briefly, total RNA was extracted and reverse-transcribed using commercial kits (QIAGEN, Applied Biosystems). Quantitative real-time PCRs were performed on an AbiPRISM 7900HT real-time cycler using iTaq SYBR Green Supermix with ROX (BioRad) to measure CARKL, adiponectin, UCP-1, TNFa, IL-6, MCP-1, and beta-actin expression as previously described (Haschemi et al., Cell Metab. 15 (2012), 813-826). Expression of target gene was normalized to beta-actin expression. Relative expression of target gene was calculated by the delta-delta CT method.

[4] = system: sedoheptulose kinase (CARKL); assay: Sedoheptulose kinase assay (ADP Quest, ADP formation); format: biochemical; details: constant amount of recombinant CARKL, constant ATP 150 μM, increased doses of sedoheptulose
Excerpt: The ADP Quest Assay (DiscoveRx) was used to indirectly measure […] formation by ADP accumulation over time according to the manufacture instructions. Recombinant sedoheptulose kinase was previously produced in E. coli and purified by affinity purification ([…] et al., Cell Metab. 15 (2012), 813-826).

osteoclasts = assay: In vitro bone resorption assay (osteoclast pit formation); format: cell-based, mouse
Description: Mouse bones were isolated from male wild-type and CARKL overexpressing mice and bone marrow wash flushed, washed and cleared from red blood cells by lysis, and subsequently differentiated in DMEM containing 25 mM glucose and 20 ng/ml M-CSF. After 4 days, cells for osteoclast differentiation were harvested and seeded in corning osteo assay plates with differentiation media (see below), and for primary bone marrow derived macrophages (BMDM) the medium was renewed and further supplemented with M-SCF for two days. Differentiated BMDM were then seeded in respective DMEM-media containing 10% FBS and indicated carbohydrate mixes at 3 g/L (glucose and fructose (GF), or glucose, fructose and sedoheptulose (GFS)) at least two days before experiments were performed. Osteoclast precursor cells (bone marrow cells treated with 20 ng/ml M-CSF for 4 days) were plated in 24-well Corning Osteo Assay plate in the presence of 10 ng/ml M-CSF and 100 ng/ml RANKL in alpha-MEM medium containing 10% FBS and 3 g/L either glucose and fructose (GF), or glucose, fructose, and sedoheptulose (GFS). The Medium was renewed every third day. […] Each well was entirely photographed by TissueFax with an ×20 objective and all visible resorption pits were counted and analysed blinded.

[5] = system: primary bone marrow derived macrophages; assay: Basal cytokine mRNA expression in primary bone marrow derived macrophages in GF or GFS media; format: cell-based, mouse; details: pre-cultured two days in GFS vs GF media
Description: (§4) Mouse bones were isolated from male wild-type and CARKL overexpressing mice and bone marrow wash flushed, washed and cleared from red blood cells by lysis, and subsequently differentiated in DMEM containing 25 mM glucose and 20 ng/ml M-CSF. After 4 days, cells for osteoclast differentiation were harvested and seeded in corning osteo assay plates with differentiation media (see below), and for primary bone marrow derived macrophages (BMDM) the medium was renewed and further supplemented with M-SCF for two days. Differentiated BMDM were then seeded in respective DMEM-media containing 10% FBS and indicated carbohydrate mixes at 3 g/L (glucose and fructose (GF), or glucose, fructose and sedoheptulose (GFS)) at least two days before experiments were performed.
as §3

[6] = target: T1, Glucose-6-phosphate dehydrogenase (G6PD) (Mus musculus, UniProt Q00612); assay: Glucose-6-phosphate dehydrogenase activity assay (enzyme histochemistry) in hepatocytes; format: cell-based; details: WT cells incubated in cell culture media with sedoheptulose; data not shown
T1 construct: Hepatocytes were isolated from male wild-type and CARKL overexpressing mice; endogenous in cells; host or cells: primary mouse hepatocytes (WT and CARKL-transgenic)
Description: as §2
Cells were grown on polystyrene vessel tissue culture treated glass slides, snap frozen in liquid nitrogen and kept at −80° C. The enzyme histochemical procedure was based on the tetrazolium salt method as described by Van Noorden and Frederiks. […] The medium was freshly prepared immediately before incubation. Control reactions additionally contained 40 mM glucosamine-6-phosphate. Cells were incubated at room temperature for 15 minutes under continuous mixing by orbital shaker. After incubation, cells were washed 3×5 minutes in 60° C. phosphate buffered saline, dried, and mounted in glycerol gelatin, and photographed within one day at ×10 magnification.

[7] = system: bone marrow derived macrophages; assay: Cytokine secretion (ELISA) by bone marrow derived macrophages, basal and LPS-induced; format: cell-based, mouse; details: ELISA of supernatant over two days, GFS vs GF media
Description: as §4

WT hepatocytes = assay: Glucose-induced ECAR in primary hepatocytes; format: cell-based, mouse; details: WT hepatocytes in GFS vs GF media, 1 hr carbohydrate starvation, then glucose 1 g/L
Description: as §2
as §1, with “instructions. Briefly, cells were seeded in seahorse cell plates at a density of 10^4 cells per well for adipocytes and 0.5×10^5 cells per well for hepatocytes.” for “instructions.”

primary human adipocytes [8] = assay: mRNA expression (RT-PCR) in primary human adipocytes differentiated in GF or GFS media; format: cell-based; details: GFS (1 g/L each sugar) vs GF (1.5 g/L each), eight days differentiation
Description: Stromal vascular fraction cells (SVFs) from subcutaneous white adipose tissue of a patient undergoing abdominal surgery were isolated as described before (Lindroos et al, Cell Metab. (2013), Jul. 2; 18(1):62-74.). Briefly, adipose tissue was digested with Collagenase II (Worthington) and filtered. SVFs were separated from mature adipocytes by centrifugation, followed by the lysis of erythrocytes in the SVF-fraction (Buffer EL, Qiagen). The purified SVFs were cultured in DMEM/F12, 10% FBS (Gibco, Life Technologies). […] Two days after confluence (day 0), differentiation was induced by adding 1 μM dexamethasone, 1.74 μM insulin, 5 μM troglitazone, […], 17 μM pantothenic acid and 33 μM biotin. After two days, IBMX and dexamethasone were omitted, while insulin and troglitazone were removed on day 4. 50% of the medium was replaced on day 6. Two days later, the cells were harvested for RNA isolation (RNeasy mini kit, Qiagen). Briefly, total RNA was extracted and reverse-transcribed using commercial kits (QIAGEN, Applied Biosystems). Quantitative real-time PCRs were performed on an […] real-time cycler using iTaq SYBR Green Supermix with ROX (BioRad) to measure CARKL, adiponectin, UCP-1, TNFa, IL-6, MCP-1, and beta-actin expression as previously described ([…] et al., Cell Metab. 15 (2012), 813-826). […] Relative expression of target gene was calculated by the delta-delta CT method.

mature murine adipocytes = assay: Cytokine mRNA expression in mature murine adipocytes (ceiling culture) in GF or GFS media; format: cell-based, mouse; details: three days in sedoheptulose containing media vs glucose and fructose alone
Description: Anterior and posterior subcutaneous adipose tissue and epididymal white adipose tissue was isolated from transgenic CARKL-mice and wild-type littermate controls. Adipose tissue was digested as described above for the human sample. After centrifugation, the layer of floating mature adipocytes was removed and re-centrifuged at 100 rcf for 10 minutes. 150 μL of packed adipocytes were cultured under a floating coverslip in six-well plates, in DMEM/F12, 15% calf serum (PAA). 24 hours after isolation, the wells were washed twice with PBS and the medium was exchanged to DMEM/F12 with a total carbohydrate load of 3 g/L, containing 1.5 g/L glucose and fructose, or 1 g/L each of glucose, fructose and sedoheptulose, respectively. Three days later, the cells were harvested for RNA isolation using TRIreagent (Sigma).
as §3

T1 sequence (Q00612 whole entry): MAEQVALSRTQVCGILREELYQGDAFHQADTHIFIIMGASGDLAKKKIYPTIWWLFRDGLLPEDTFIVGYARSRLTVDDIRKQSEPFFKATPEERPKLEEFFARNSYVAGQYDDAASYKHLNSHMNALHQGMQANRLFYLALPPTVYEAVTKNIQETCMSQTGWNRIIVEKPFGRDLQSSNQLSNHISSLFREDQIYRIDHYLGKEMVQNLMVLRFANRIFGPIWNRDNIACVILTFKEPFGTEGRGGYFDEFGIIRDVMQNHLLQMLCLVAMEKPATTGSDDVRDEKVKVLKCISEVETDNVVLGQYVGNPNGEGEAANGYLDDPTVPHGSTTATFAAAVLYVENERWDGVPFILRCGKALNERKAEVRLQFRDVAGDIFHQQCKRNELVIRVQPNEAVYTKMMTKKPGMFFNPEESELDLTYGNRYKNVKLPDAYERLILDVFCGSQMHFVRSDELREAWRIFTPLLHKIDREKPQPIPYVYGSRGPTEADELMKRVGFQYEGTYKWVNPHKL

O=C(CO)[C@@H](O)[C@H](O)[C@H](O)[C@H](O)CO [sedoheptulose, Sedoheptulose]
cellular oxygen consumption rate (OCR) (primary human adipocytes [1]): increased
extracellular acidification rate (ECAR) (primary human adipocytes [1]): comparable
increase in sedoheptulose serum levels [2]: approximately two-fold
IL-6 expression [3]: less
sedoheptulose turnover rate (ADP formation) [4]: enhanced
pit formation by osteoclasts (osteoclasts; 7 days in GFS vs GF media, Corning Osteo Assay plates): reduced
larger resorption-pits (osteoclasts; WT osteoclasts cultured in GF or GFS media): found only in the absence of sedoheptulose
basal IL-6 mRNA expression [5]: blocked
basal TNFa mRNA expression [5]: blocked
G6PD activity distribution (re-localization of G6PD and reduced activity in the inner space of the cells, as in CARKL overexpressing cells) [6]: same phenotype was achieved
basal IL-6 secretion [7]: blocked
basal TNFa secretion [7]: blocked
glucose-induced ECAR (WT hepatocytes): reduced
sedoheptulose kinase CARKL mRNA expression (primary human adipocytes [8]): increase
IL-6 mRNA (mature murine adipocytes): less
TNFa mRNA (mature murine adipocytes): less
